Source: US20210391038A1, “SPECIFICALLY-SHAPED CRYSTAL OF COMPOUND AND METHOD FOR PRODUCING SAME” (TOWA PHARMACEUTICAL CO., LTD., priority 2018, published 2021)
Read-outs that look alike come from different tables or passages of the source.

Legend:
Assay type in all cases: physicochemical
[1] = Sphericity from SEM images (ImageJ); parameters: key: 1 = true sphere; closer to 1 = more spherical; mean of ≥5 particles; conditions: trihydrate; for sphericity of the spherulite: SEM image analysis, mean of particles
Particle strength = experiment: Particle strength
From the text: Furthermore, a polycrystal with a high particle density also has a high particle strength. When a polycrystal, particularly a spherulite, is used as a raw material for production of drugs, a problem occurs in which wear in a formulation step leads to deterioration of yield or quality or both, and a polycrystal with a high particle strength has an advantage in this regard. When a specifically-shaped crystal obtained by the present invention is a polycrystal, the particle strength is preferably 1.0 MPa or more, more preferably 1.5 MPa or more, still more preferably 2.0 MPa, yet more preferably 2.5 MPa or more, and particularly preferably 3.0 MPa or more. The particle strength is calculated by measuring the force at which a particle breaks when load is applied to one particle and the particle size. Specifically, the particle strength is calculated by the following formula in accordance with JIS R 1639-5. Examples of a measuring device include a particle hardness measuring device NEW GRANO manufactured by OKADA SEIKO CO., LTD. and a micro compression testing machine MCT manufactured by Shimadzu Corporation. […]
The particle strength of the spherulite of esomeprazole magnesium trihydrate obtained in Example 2, the spherulite of esomeprazole magnesium trihydrate obtained in Example 5, and the spherulite of esomeprazole magnesium trihydrate obtained in Example 6 was measured.

[2] = Particle size distribution (d50, sharpness index); parameters: key to sharpness index of the crystal thus obtained / sharpness index of the fine powders: calculated by formula from d10, d50, d90; 1.0 = most uniform particle size; conditions: for d50: samples of dissolution test (Table 4)
From the text: d10 in the present description is a value obtained from a particle size distribution analyzer, and represents a particle size of a particle corresponding to 10% of accumulation from the smaller particle side in the particle size distribution based on the volume.
d50 in the present description is a value obtained from a particle size distribution analyzer, and represents a particle size of a particle corresponding to 50% of accumulation from the smaller particle side in the particle size distribution based on the volume.
“Sharpness index” in the present description is an index representing the uniformity of a particle size of a particle in a powder, and a sharpness index of 1.0 represents a powder having the most uniform particle size. The closer the sharpness index is to 1.0, the more the particle size of the powder is uniform. Specifically, the sharpness index represents a value calculated using the following formula from the values of d10, d50, and d90 measured by a particle size distribution analyzer:
Images for measuring the number of particles were obtained by a scanner GT-X830 manufactured by SEIKO EPSON CORPORATION. The powder X-ray diffraction (XRD) was measured using a desktop X-ray diffraction device MiniFlex300 manufactured by Rigaku Corporation. […] The particle strength was measured using a particle hardness measuring device NEW GRANO manufactured by OKADA SEIKO CO., LTD. […] The purity of a compound was measured by a high performance liquid chromatograph (LC-20A) manufactured by Shimadzu Corporation.

[3] = Specific surface area (BET fluid process); conditions: nitrogen, trihydrate
Protocol: The particle size distribution was measured in a dry manner using a spray particle size distribution analyzer AEROTRAC LDSA-SPR3500A manufactured by Microtrac Inc. The particle size distribution in Examples 2 and 7 was measured in a dry manner using a laser diffraction particle size distribution measurement MASTERSIZER 3000 manufactured by Malvern Panalytical Ltd. SEM images were measured using a scanning electron microscope JSM-IT100 manufactured by JEOL Ltd. Light microscope images were measured using an upright microscope BX53M manufactured by Olympus Corporation and a microscope digital camera DP74 manufactured by Olympus Corporation. […] The powder X-ray diffraction (XRD) was measured using a desktop X-ray diffraction device MiniFlex300 manufactured by Rigaku Corporation. The specific surface area was measured by the BET fluid process (gas used: pure nitrogen) using a fully automatic specific surface area measuring device Macsorb HM-1208 manufactured by Mountech Co., Ltd. The moisture content was measured using a trace moisture measuring device AQ-2200 manufactured by […] SANGYO Co., Ltd. The dissolution profile was measured using μDISS Profiler manufactured by Pion Inc. Centrifugal classification was performed using a high-efficiency precision forced air classifier Lab Calssiel N-01 manufactured by SEISHIN […] […]

[4] = Measurement of dissolution profile (μDISS Profiler); conditions: 30 mg in 10 mL phosphate buffer pH 6.8, 37° C., 300 rpm
Protocol: The dissolution profile is described by the zero-order model, the first-order model, the Weibull model, the Higuchi model, the Hixson-Crowell model, the Korsmeyer-Peppas model, the Baker-Lonsdale model, the Hopfenberg model, and the like. The Weibull model is represented by the following formula: […]
The particle size distribution was measured in a dry manner using a spray particle size distribution analyzer AEROTRAC LDSA-SPR3500A manufactured by Microtrac Inc. The particle size distribution in Examples 2 and 7 was measured in a dry manner using a laser diffraction particle size distribution measurement MASTERSIZER 3000 manufactured by Malvern Panalytical Ltd. SEM images were measured using a scanning electron microscope JSM-IT100 manufactured by JEOL Ltd. Light microscope images were measured using an upright microscope BX53M manufactured by Olympus Corporation and a microscope digital camera DP74 manufactured by Olympus Corporation. […] The powder X-ray diffraction (XRD) was measured using a desktop X-ray diffraction device MiniFlex300 manufactured by Rigaku Corporation. The specific surface area was measured by the BET fluid process (gas used: pure nitrogen) using a fully automatic specific surface area measuring device Macsorb HM-1208 manufactured by Mountech Co., Ltd. The moisture content was measured using a trace moisture measuring device AQ-2200 manufactured by […] […]

[5] = calculated from d10, d50, d90, trihydrate
[6] = dry particle size distribution, volume based, trihydrate

Compound	sphericity of the spherulite [1]	Particle strength (Particle strength)	sharpness index of the crystal thus obtained [2, 5]	d50 of the crystal thus obtained [2, 6]	sphericity of the non-spherulite ([1]; non-spherulite crystals)	Specific surface area [3]	d50 ([2]; trihydrate)	dissolution compared with the non-spherulite [4]	Particle strength (Particle strength; trihydrate)	d50 of the crystal thus obtained [2]	sharpness index of the crystal thus obtained [2]
COc1ccc2[n-]c([S@@+]([O-])Cc3ncc(C)c(OC)c3C)nc2c1.COc1ccc2[n-]c([S@@+]([O-])Cc3ncc(C)c(OC)c3C)nc2c1.O.O.O.[Mg+2] [Example 5, esomeprazole magnesium trihydrate]	0.89±0.05	2.3 ± 0.4 MPa	1.4	149.9 μm	–	–	–	–	–	–	–
COc1ccc2[n-]c([S@@+]([O-])Cc3ncc(C)c(OC)c3C)nc2c1.COc1ccc2[n-]c([S@@+]([O-])Cc3ncc(C)c(OC)c3C)nc2c1.O.O.O.[Mg+2] [Ground product of non-spherulite, esomeprazole magnesium trihydrate]	–	–	–	–	0.45±0.23	44.0 m^2/g	5.1 μm	–	–	–	–
COc1ccc2[n-]c([S@@+]([O-])Cc3ncc(C)c(OC)c3C)nc2c1.COc1ccc2[n-]c([S@@+]([O-])Cc3ncc(C)c(OC)c3C)nc2c1.O.O.O.[Mg+2] [Example 8(1), esomeprazole magnesium trihydrate]	0.95±0.03	–	2.2	33.0 μm	–	22.6 m^2/g	33.0 μm	more rapid dissolution	–	–	–
COc1ccc2[n-]c([S@@+]([O-])Cc3ncc(C)c(OC)c3C)nc2c1.COc1ccc2[n-]c([S@@+]([O-])Cc3ncc(C)c(OC)c3C)nc2c1.O.O.O.[Mg+2] [Example 6, esomeprazole magnesium trihydrate]	0.96±0.01	–	–	–	–	–	–	–	2.9 ± 0.5 MPa	91.5	1.45
